Assay results: patent US11000033B2, “Ketone or oxime compound, and herbicide” (NISSAN CHEMICAL CORPORATION, priority 2014, dated 2021)

How the values were obtained:
Type in all cases: in vivo
Digitaria ciliaris = assay: Test Example 4: herbicidal effect by soil treatment (symbol F); conditions: for Herbicidal effect grade, F: Digitaria ciliaris: application herbicide amount 320 g/ha
Outline: (§1)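 Seeds were sown in sterilized diluvial soil, covered with about 1.5 cm of soil, and the soil surface was sprayed with a water-diluted emulsion of the compound at a predetermined rate. Plants grew in a greenhouse at 25° C. to 30° C.; effects were scored visually 3 weeks after application.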

Monochoria vaginalis = assay: Test Example 2: herbicidal activity, application during weed generation in submerged conditions (symbol C); conditions: Table 23; application herbicide amount 320 g/ha; grade 0-5 by criteria of Test Example 1
Outline: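 Weeds emerging under flooded conditions were treated with compound formulated as an emulsion and diluted with water to the intended herbicide amount, poured onto the surface of 4 cm standing water. Seeds had been co-sown in alluvial soil; plants grew at 25° C. to 30° C. and were assessed after 3 weeks.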

corn [1] = assay: Test Example 5: effect on crop by foliage application, plastic box (symbol c); conditions: 320 g/ha, 3 weeks after application
Outline: (§2)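 Crop seed is sown alongside grass and broadleaf weed species in spots in sterilized diluvial soil, then covered to a depth of about 1.5 cm. Plants grow in a greenhouse kept at 25° C. to 30° C.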

soybean = assay: Test Example 5: effect on crop by foliage application, plastic box (symbol d); conditions: 320 g/ha, 3 weeks after application
Outline: as §2

rice = assay: Test Example 4: effect on crop by soil treatment (symbol b); conditions: for b: directly sowed rice plant, effect grade on crop: 320 g/ha; for Effect on crop grade, b: directly sowed rice plant: application herbicide amount 320 g/ha
Outline: (§3)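 Seeds were sown in spots on sterilized diluvial soil in a plastic box and covered with about 1.5 cm of soil. Plants were then grown in a greenhouse at 25° C. to 30° C.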

rapeseed = assay: Test Example 4: effect on crop by soil treatment (symbol g); conditions: for g: rapeseed, effect grade on crop: 320 g/ha; for Effect on crop grade, g: rapeseed: application herbicide amount 320 g/ha
Outline: as §3

Alopecurus myosuroides = assay: Test Example 5: herbicidal effect by foliage application, plastic box (symbol J); conditions: 320 g/ha, 3 weeks after application
Outline: (§4)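 Seeds were sown in sterilized diluvial soil, covered with about 1.5 cm of soil and grown 14 days in a greenhouse at 25° C. to 30° C. An emulsifiable formulation diluted in water to a set rate was sprayed over foliage, and injury was scored 3 weeks later.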

corn [2] = assay: Test Example 4: effect on crop by soil treatment (symbol c); conditions: for c: corn, effect grade on crop: 320 g/ha; for Effect on crop grade, c: corn: application herbicide amount 320 g/ha
Outline: as §3

[3] = test system: Echinochloa crus-galli var. crus-galli; assay: Test Example 5: herbicidal effect by foliage application, plastic box (symbol H); conditions: 320 g/ha, 3 weeks after application
Outline: as §4

Avena fatua = assay: Test Example 4: herbicidal effect by soil treatment (symbol I); conditions: for I: Avena fatua, herbicidal effect grade: 320 g/ha; for Herbicidal effect grade, I: Avena fatua: application herbicide amount 320 g/ha
Outline: as §1

Leptochloa chinensis = assay: Test Example 3: herbicidal effect by foliage application, Wagner pot (symbol D); conditions: application herbicide amount 320 g/ha; for D (Leptochloa chinensis) herbicidal effect grade: Table 24
Outline: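 Alluvial soil was flooded to a depth of 0.1–0.5 cm, seeded with the weeds and rice, and kept in a greenhouse at 25–30 °C. After 14 days of growth, the foliage received a small-sprayer application of emulsion diluted to the intended rate; injury was rated at 3 weeks.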

SMILES	Herbicidal effect grade, C: Monochoria vaginalis (Monochoria vaginalis)	c: corn, effect on crop (criteria 0-5) (corn [1])	d: soybean, effect on crop (criteria 0-5) (soybean)	b: directly sowed rice plant, effect grade on crop (rice)	g: rapeseed, effect grade on crop (rapeseed)	J: Alopecurus myosuroides, herbicidal effect (criteria 0-5) (Alopecurus myosuroides)	c: corn, effect grade on crop (corn [2])	H: Echinochloa crus-galli var. crus-galli, herbicidal effect (criteria 0-5) [3]	I: Avena fatua, herbicidal effect grade (Avena fatua)	Herbicidal effect grade, F: Digitaria ciliaris (Digitaria ciliaris)	c: corn, effect on crop grade (corn [1])	d: soybean, effect on crop grade (soybean)	Effect on crop grade, b: directly sowed rice plant (rice)	Effect on crop grade, g: rapeseed (rapeseed)	J: Alopecurus myosuroides, herbicidal effect grade (Alopecurus myosuroides)	D (Leptochloa chinensis) herbicidal effect grade (Leptochloa chinensis)	Effect on crop grade, c: corn (corn [2])	H: Echinochloa crus-galli var. crus-galli, herbicidal effect grade [3]	Herbicidal effect grade, I: Avena fatua (Avena fatua)	also measured
CC(CC1CC(O)=C(c2c(C)cc(C)cc2C)C1=O)=NOCc1ccccc1Cl (stereo not shown) [1-113]	0 (Herbicidal ratio of 5% or lower (almost no effect))	0 (Herbicidal ratio of 5% or lower (almost no effect))	0 (Herbicidal ratio of 5% or lower (almost no effect))	2 (Herbicidal ratio of 20% or higher and lower than 40%)	0 (Herbicidal ratio of 5% or lower (almost no effect))	4 (Herbicidal ratio of 70% or higher and lower than 90%)	0 (Herbicidal ratio of 5% or lower (almost no effect))	4 (Herbicidal ratio of 70% or higher and lower than 90%)	3 (Herbicidal ratio of 40% or higher and lower than 70%)	–	–	–	–	–	–	–	–	–	–	F: Digitaria ciliaris, herbicidal effect grade (Digitaria ciliaris; 320 g/ha): 1 (Herbicidal ratio of 5% or higher and lower than 20%)
CC(CC1CC(O)=C(c2c(C)cc(C)cc2C)C1=O)=NOCc1ccc(C(F)(F)F)cc1 (stereo not shown) [1-138]	2 (Herbicidal ratio of 20% or higher and lower than 40%)	2 (Herbicidal ratio of 20% or higher and lower than 40%)	0 (Herbicidal ratio of 5% or lower (almost no effect))	5 (Herbicidal ratio of 90% or more (almost completely withered))	0 (Herbicidal ratio of 5% or lower (almost no effect))	5 (Herbicidal ratio of 90% or more (almost completely withered))	0 (Herbicidal ratio of 5% or lower (almost no effect))	5 (Herbicidal ratio of 90% or more (almost completely withered))	0 (Herbicidal ratio of 5% or lower (almost no effect))	–	–	–	–	–	–	–	–	–	–	herbicidal effect on D (Leptochloa chinensis), grade 0-5 (Leptochloa chinensis): 2 (Herbicidal ratio of 20% or higher and lower than 40%)
CC#Cc1cc(C)c(C2=C(O)CC(CC(=NOCC(F)(F)F)C(C)C)C2=O)c(C)c1 (stereo not shown) [9-015]	–	–	–	–	–	–	–	–	–	5 (Herbicidal ratio of 90% or more (almost completely withered))	5 (Herbicidal ratio of 90% or more (almost completely withered))	0 (Herbicidal ratio of 5% or lower (almost no effect))	5 (Herbicidal ratio of 90% or more (almost completely withered))	0 (Herbicidal ratio of 5% or lower (almost no effect))	5 (Herbicidal ratio of 90% or more (almost completely withered))	5 (Herbicidal ratio of 90% or more (almost completely withered))	0 (Herbicidal ratio of 5% or lower (almost no effect))	5 (Herbicidal ratio of 90% or more (almost completely withered))	1 (Herbicidal ratio of 5% or higher and lower than 20%)	–
CC#Cc1cc(C)c(C2=C(O)CC(CC(=NOCCOC)C3CC3)C2=O)c(C)c1 (stereo not shown) [9-021]	–	–	–	–	–	–	–	–	–	5 (Herbicidal ratio of 90% or more (almost completely withered))	5 (Herbicidal ratio of 90% or more (almost completely withered))	1 (Herbicidal ratio of 5% or higher and lower than 20%)	5 (Herbicidal ratio of 90% or more (almost completely withered))	2 (Herbicidal ratio of 20% or higher and lower than 40%)	5 (Herbicidal ratio of 90% or more (almost completely withered))	5 (Herbicidal ratio of 90% or more (almost completely withered))	3 (Herbicidal ratio of 40% or higher and lower than 70%)	5 (Herbicidal ratio of 90% or more (almost completely withered))	1 (Herbicidal ratio of 5% or higher and lower than 20%)	–
